Data published in paper PMC7912928, “Anti-Infective and Antiviral Activity of Valinomycin and Its Analogues from a Sea Cucumber-Associated Bacterium, Streptomyces sp. SV 21” (Marine Drugs, 2021).
In brackets after ≈: the same amount, converted by molar mass.

Experiments:
[1] = system: Mycobacterium smegmatis (ATCC 700084); assay: Antimicrobial microdilution assay (MIC); assay type: cell-based; settings: microdilution in 96-well plates, seven 1:2 serial dilution steps, Mueller–Hinton bouillon, start OD548 0.1, 30 °C, 160 rpm overnight
Text: (§1) The panel of test microorganisms consisted of the following multi drug-resistant (MDR) bacteria: Gram-negative Escherichia coli (DSM 1116) and Pseudomonas aeruginosa (PA16); Gram-positive Bacillus subtilis (DSM 10), Staphylococcus aureus (DSM 346), and Mycobacterium smegmatis (ATCC 7000048); yeasts Candida albicans (DSM 1665) and Rhodotorula glutinis (DSM 10134); and filamentous fungi Mucor hiemalis (DSM 2656). The positive controls were nystatin, oxytetracyclin, kanamycin, and gentamycin, with a concentration of 1 mg/mL. Compounds 1–4 were prepared in a concentration of 1 mg/mL MeOH. The activity of the samples was observed by using the microdilution technique in 96 well plates for tissue cultures (TPP). As much as 20 µL of the MeOH solution of each compound (1 mg/mL) was mixed with 300 µL of bacterial or fungal suspension, except for the positive controls where 2 µL of either oxytetracycline, kanamycin, and gentamycin in 300 µL of bacterial suspension was used. The samples were tested in seven 1:2 serial dilution steps (concentrations A to H) in 96-well plates. Bacteria were cultivated in Mueller–Hinton bouillon (Roth) and fungi/yeasts in MYC medium (1.0% phytone peptone, 1.0% glucose, and 1.19% HEPES, pH 7.0). Start OD600 was 0.01 for B. subtilis, E. coli, and S. aureus; start OD548 was 0.1 for M. hiemalis, C. albicans, R. glutinis, M. smegmatis, and P. aeruginosa. The test organisms were cultivated at 30 °C and 160 rpm overnight.

[2] = system: Eschericia coli (DSM 1116); assay: Antimicrobial microdilution assay (MIC); assay type: cell-based, Escherichia coli; settings: seven 1:2 serial dilution steps, Mueller–Hinton bouillon, start OD600 0.01, 30 °C, 160 rpm overnight; for MIC, Gram-Negative, Ec: microdilution in 96-well plates
Text: as §1

[3] = system: Mucor hiemalis (DSM 2656); assay type: cell-based; settings: for MIC, Fungi, Mh: Mucor hiemalis (DSM 2656), microdilution in 96-well plates, seven 1:2 serial dilution steps, MYC medium pH 7.0, start OD548 0.1, 30 °C, 160 rpm overnight
Text: as §1

[4] = system: Rhodoturula glutinis (DSM 10134); assay type: cell-based; settings: for MIC, Fungi, Rg: Rhodoturula glutinis (DSM 10134), microdilution in 96-well plates, seven 1:2 serial dilution steps, MYC medium pH 7.0, start OD548 0.1, 30 °C, 160 rpm overnight
Text: as §1

Huh7.5 cells = assay: Viability of Huh7.5 cells (Firefly luciferase) in the anti-HCV assay; assay type: cell-based; settings: 10 µg/mL; Firefly luciferase read-out; compared to positive control EGCG; Figure 4B
Method: (§2) The anti-HCV assay was performed as mentioned in [5]. In brief, Huh7.5 cells stably expressing Firefly luciferase (Huh7.5 Fluc) were cultured in Dulbecco’s modified minimum essential medium (DMEM, Gibco, Thermo Fisher Scientific, Schwerte, Germany) and maintained in a 37 °C environment with 5% CO2 supply. Samples were added to the cells, and then the cells were infected with Jc1-derived Renilla reporter viruses. Compounds and the positive control (Epigallocatechin gallate, EGCG) were tested at a concentration of 10 µg/mL. Renilla and Firefly luciferase activities from the infected cells were measured on a Berthold Technologies Centro XS3 Microplate Luminometer (Bad Wildbad, Germany) as indicators of viral genome replication and cell viability, respectively.

[5] = system: Hepatitis C Virus (HCV), Jc1-derived Renilla reporter viruses in Huh7.5 Fluc cells; assay: Inhibitory effects on Hepatitis C Virus (HCV) infectivity; assay type: cell-based; settings: 10 µg/mL, Huh7.5 Fluc cells infected with Jc1-derived Renilla reporter viruses, Renilla luciferase read-out, compared to positive control EGCG, Figure 4A
Method: as §2

[6] = system: Bacillus subtilis (DSM 10); assay: microbe, parasite or virus in culture; assay type: cell-based; settings: seven 1:2 serial dilution steps, Mueller–Hinton bouillon, start OD600 0.01, 30 °C, 160 rpm overnight
Text: as §1

[7] = system: Staphylococcus aureus (DSM 346); assay: microbe, parasite or virus in culture; assay type: cell-based; settings: seven 1:2 serial dilution steps, Mueller–Hinton bouillon, start OD600 0.01, 30 °C, 160 rpm overnight; for MIC, Gram-Positive, Sa: microdilution in 96-well plates
Text: as §1

Bacillus subtilis (Bs) = settings: pH values from 5.5 to 9.5; cited from earlier work
Text: Previous studies had also shown antifungal activity of valinomycin against the plant pathoge ...

[8] = system: Pseudomonas aeruginosa (PA14); assay: Antimicrobial microdilution assay (MIC); assay type: cell-based; settings: microdilution in 96-well plates, seven 1:2 serial dilution steps, Mueller–Hinton bouillon, start OD548 0.1, 30 °C, 160 rpm overnight
Text: as §1

[9] = system: Candida albicans (DSM 1665); assay: Antimicrobial microdilution assay (MIC); assay type: cell-based; settings: microdilution in 96-well plates, seven 1:2 serial dilution steps, MYC medium pH 7.0, start OD548 0.1, 30 °C, 160 rpm overnight
Text: as §1

For `NC[C@H]1O[C@H](O[C@H]2[C@H](O)[C@@H](O[C@H]3O[C@H](CO)[C@@H](O)[C@H](N)[C@H]3O)[C@H](N)C[C@@H]2N)[C@H](O)[C@@H](O)[C@@H]1O` [Kanamycin], the “MIC, Gram-Positive, Ms” value [1] was 3.3 mg/L (≈ 6.81 µM).
In the case of `CCC(C)[C@H]1OC(=O)[C@H](C(C)C)NC(=O)[C@H](C)OC(=O)[C@@H](C(C)C)NC(=O)[C@@H](C(C)C)OC(=O)[C@H](C(C)C)NC(=O)[C@H](C)OC(=O)[C@@H](C(C)C)NC(=O)[C@@H](C(C)C)OC(=O)[C@H](C(C)C)NC(=O)[C@H](C)OC(=O)[C@@H](C(C)C)NC1=O` (stereo partly drawn) [Streptodepsipeptide SV21 (4), Streptodepsipeptide SV21], the “MIC, Gram-Negative, Ec” value [2] is reported as “-”, the “MIC, Fungi, Mh” value [3] is reported as 16.6 mg/L (≈ 14.8 µM) and the “MIC, Fungi, Rg” value [4] is reported as 16.6 mg/L (≈ 14.8 µM). The “Viability of Huh7.5 cells after exposure to the test compounds, in words” value (shortened to “Viability of Huh7.5 cells after exposure”) (Huh7.5 cells) was “lower than for the positive control”, the “Activity against HCV infectivity (HCV-infected hepatoma cells), in words” value (from here on “Activity against HCV infectivity”) ([5]; listed as 4) was “potent antiviral activity” and the “MIC, Gram-Positive, Bs” value ([6]; microdilution in 96-well plates) was 33.3 mg/L (≈ 29.6 µM). The “MIC, Gram-Positive, Sa” value [7] was 16.6 mg/L (≈ 14.8 µM).
For `CC(C)[C@@H]1NC(=O)[C@H](C)OC(=O)[C@@H](C(C)C)NC(=O)[C@@H](C(C)C)OC(=O)[C@H](C(C)C)NC(=O)[C@H](C)OC(=O)[C@@H](C(C)C)NC(=O)[C@@H](C(C)C)OC(=O)[C@H](C(C)C)NC(=O)[C@H](C)OC(=O)[C@@H](C(C)C)NC(=O)[C@@H](C(C)C)OC1=O` [Valinomycin (3), Valinomycin], the “Antibacterial activity against Bs as a function of pH, in words” value (Bacillus subtilis (Bs)) is listed as “increase in antibacterial activity against Bs at higher pH values”, the “MIC, Gram-Negative, Ec” value [2] is listed as “-” and the “MIC, Fungi, Mh” value [3] is listed as 2.1 mg/L (≈ 1.89 µM). For the same compound, the “Antifungal strength relative to nystatin against Mh” value ([3]; comparison of MIC values, Mucor hiemalis) was “eight times stronger than nystatin”, the “MIC, Fungi, Rg” value [4] was 4.2 mg/L (≈ 3.78 µM) and the “Antifungal strength relative to nystatin against Rg” value ([4]; comparison of MIC values, Rg) was “as strong as nystatin”. For the same compound, the “Viability of Huh7.5 cells after exposure” value (Huh7.5 cells) was “lower than for the positive control”, the “Activity against HCV infectivity” value [5] was “potent antiviral activity” and the “MIC, Gram-Positive, Sa” value [7] was 4.2 mg/L (≈ 3.78 µM).
In the case of `CN(C)[C@@H]1C(O)=C(C(N)=O)C(=O)[C@@]2(O)C(O)=C3C(=O)c4c(O)cccc4[C@@](C)(O)[C@H]3[C@H](O)[C@@H]12` [Oxytetracycline, reference compound], the MIC ([2]; Escherichia coli, DSM1116, microdilution in 96-well plates, read-out: MIC, Gram-Negative, Ec) is reported as 1.7 mg/L (≈ 3.69 µM), the MIC ([6]; DSM10, microdilution in 96-well plates, read-out: MIC, Gram-Positive, Bs) is reported as 8.3 mg/L (≈ 18 µM) and the MIC ([7]; DSM346, microdilution in 96-well plates, read-out: MIC, Gram-Positive, Sa) is reported as 0.2 mg/L (≈ 0.434 µM).
In the case of `CC(C)[C@@H]1NC(=O)[C@H](C)OC(=O)[C@@H](C(C)C)NC(=O)[C@@H](C(C)C)OC(=O)[C@H](C(C)C)NC(=O)[C@H](C)OC(=O)[C@@H](C(C)C)NC(=O)[C@@H](C(C)C)OC(=O)[C@H](C(C)C)NC(=O)[C@H](C)OC(=O)[C@@H](C(C)C)NC(=O)[C@H](C)OC1=O` [Streptodepsipeptide P11B (1), Streptodepsipeptide P11B], the “MIC, Gram-Negative, Ec” value [2] is reported as “-”, the “MIC, Fungi, Mh” value [3] is reported as 16.6 mg/L (≈ 15.3 µM) and the “MIC, Fungi, Rg” value [4] is reported as 33.3 mg/L (≈ 30.7 µM). The “Activity against HCV infectivity” value [5] was “significantly less affected the HCV”.
In the case of Gentamycin, the “MIC, Gram-Negative, Pa” value [8] is reported as 0.4 mg/L.
With `C[C@@H]1[C@H](O)[C@@H](C)/C=C/C=C/CC/C=C/C=C/C=C/C=C/C(O[C@H]2O[C@H](C)[C@@H](O)[C@H](N)[C@@H]2O)CC2O[C@](O)(CC(O)C(O)CCC(O)CC(O)CC(O)CC(=O)O[C@H]1C)CC(O)C2C(=O)O` (stereo partly drawn) [Nystatin, reference compound] the “MIC, Fungi, Mh” value [3] was 16.6 mg/L (≈ 17.9 µM), the “MIC, Fungi, Rg” value [4] was 4.2 mg/L (≈ 4.54 µM) and the “MIC, Fungi, Ca” value [9] was 33.3 mg/L (≈ 36 µM).
With `CC[C@H]1OC(=O)[C@H](C(C)C)NC(=O)[C@H](C)OC(=O)[C@@H](C(C)C)NC(=O)[C@@H](C(C)C)OC(=O)[C@H](C(C)C)NC(=O)[C@H](C)OC(=O)[C@@H](C(C)C)NC(=O)[C@@H](C(C)C)OC(=O)[C@H](C(C)C)NC(=O)[C@H](C)OC(=O)[C@@H](C(C)C)NC1=O` [Streptodepsipeptide P11A (2), Streptodepsipeptide P11A] the “MIC, Gram-Negative, Ec” value [2] was “-”, the “MIC, Fungi, Mh” value [3] was 8.3 mg/L (≈ 7.56 µM) and the “MIC, Fungi, Rg” value [4] was 8.3 mg/L (≈ 7.56 µM). The “Viability of Huh7.5 cells after exposure” value (Huh7.5 cells) was “lower than for the positive control” and the “Activity against HCV infectivity” value [5] was “potent antiviral activity”.
